Assay results taken from patent US4737487A, “VIP type peptides” (Beecham Group p.l.c., priority 1984, dated 1988).
Where a SMILES comes first, the peptide text is derived from it. [ ]: non-standard residue; d: D form. Nle = CCCC[C@H](N)C(=O)O

Experiments:
[1] = tested on: proximal duodenum acid disposal capacity; experiment: Acid disposal capacity of the rat proximal duodenum (anti-ulcer activity); format: in vivo; conditions: significance P<0.05
Procedure: Anti-ulcer activity may be related to the enhanced capacity to dispose of gastric acid. Acid disposal capacity may be enhanced by increased intestinal secretions and enhanced acid disposal capacity is believed to be useful in the treatment of peptic ulcer disease. Method for estimating the acid disposal capacity of the rat proximal duodenum Male Wistar rats, 180-250 g bodyweight, fasted overnight, are anaesthetized with urethane (150 mg/100 g bodyweight i.m.). The trachea is cannulated, and a gastric cannula, 0.5 cm i.d., 3 cm long, is inserted into the non-glandular forestomach via a mid-line abdominal incision. The intragastric cannula is exteriorized via a stab wound in the body wall. A triple lumen catheter, 0.3 cm o.d., is passed via the gastric cannula through the pylorus. The duodenum is ligated 1 cm below the pylorus, and the pylorus ligated around the cannula, thus creating a 1 cm proximal duodenal pouch excluding pancreatic and biliary secretions. The two ligatures enclosing the duodenal pouch are placed so as to avoid occluding the blood supply to the duodenal segment. Gastric secretions are allowed to drain freely from the gastric cannula. […] Outflow pH is recorded throughout the experiment. […] A group size of 6 animals or larger is used and the effect of compounds on the output pH compared to control data determined. […]

[2] = tested on: spontaneous contractile responses of circular muscle from the proximal colon; experiment: Colonic motility in vitro: isolated circular muscle of rat proximal colon; format: cell-based; conditions: rat proximal colon circular muscle in Krebs solution, isolated tissue bath
Procedure: Segments of circular muscle cut from the proximal colon of rats were mounted in Krebs solution in isolated tissue baths after the methods of Couture et al. (Couture R. et al. (1981), Can. J. Physiol. Pharmacol., 59, 957-964; and Couture R. et al., (1982), Pharmacol., 24, 230-242). The activity of the compound V was assessed from the effect on the spontaneous contractile responses generated by this tissue.

[3] = tested on: spontaneous motility of proximal colon; experiment: Colonic motility in vivo: intraluminal pressure recording in anaesthetised rat; conditions: urethane-anaesthetised male Wistar rats; intravenous administration; 3 μmol/kg
Procedure: Male albino rats, Wistar strain (Charles River UK) 300-500 g were anaesthetised with urethane. A segment of proximal colon was prepared for intraluminal pressure recording after the method of Maggi and Meli (Maggi, C. A. and Meli, A. (1982), J. Pharmacol. Methods 8, 39-46). The activity of the compound (V) was assessed from its action on the spontaneous motility of the preparation after intravenous administration.

SMILES | acid disposal (output pH compared to control) ([1]; 30 nmol/kg/h i.v. infusion, input pH 2.5 on first pass) | acid disposal (output pH compared to control) ([1]; 150 nmol/kg/h i.v. infusion, input pH 3 and 2.5 on first pass and input pH 2.5 on second pass) | ED50, effect on spontaneous contractile responses [2] | action on the spontaneous motility of the proximal colon preparation [3]
CCCC[C@H](NC(=O)[C@H](CCC(N)=O)NC(=O)[C@@H](N)CCCCN)C(=O)N[C@@H](C)C(=O)N[C@@H](CC(C)C)C(=O)N[C@@H](CCCCN)C(N)=O [Example 4, H-Lys-Gln-Nle-Ala-Leu-Lys-NH2.Acetate] (H-KQ[Nle]ALK-NH2) | significant increase | significant increase | – | –
CCCC[C@H](NC(=O)[C@H](CCC(N)=O)NC(=O)[C@@H](N)CCCCN)C(=O)N[C@@H](C)C(=O)N[C@H](C(=O)N[C@@H](CCCCN)C(N)=O)C(C)C [V, H-Lys-Gln-Nle-Ala-Val-Lys-NH2] (H-KQ[Nle]AVK-NH2) | – | – | 10^-5 M | active
